From patent US20230312449A1, “CARBOXYLIC ACID COMPOUND, AND PREPARATION METHOD THEREFOR AND APPLICATION THEREOF” (BOTREE CYCLING SCI & TECH CO., LTD., priority 2020, published 2023)
Several values for one entry are separate records, joined by “and”; a condition that tells them apart may be missing. Equal entries are not always repeated.

Test: Solubility of extractant in extraction system, oil content by CH2Cl2 extraction and weighing (Ni/Mg chloride system)
Format: physicochemical
Conditions: 0.62 mol/L in Escaid 110; saponification 24%; nickel chloride solution 1.33 g/L Ni, 4 g/L Mg; 30 min; 25° C.
Method: Compound BC195 and diluent Escaid 110 were prepared into a 0.62 mol/L solution, and an aqueous phase was a magnesium-enriched nickel chloride solution containing 1.33 g/L Ni and 4 g/L Mg; 100 mL of the organic phase was added in a 250 mL separatory funnel, 10 mol/L sodium hydroxide aqueous solution was added for saponification to a saponification proportion of 24%, and after the saponification, 100 mL of the aqueous phase was added, extraction equilibrium was carried out for 30 min, and the temperature was 25° C.
Oil content test: the aqueous phase was separated out and added with H2SO4, and the [H^+] concentration of the aqueous phase solution was about 1 mol/L. The CH2Cl2 was used for extraction (30 mL×3), and the CH2Cl2 layer was collected, dried with 1 g anhydrous Na2SO4 to remove the water in CH2Cl2, and filtered; the filtrate was subjected to rotary evaporation, and then the residue was dried with an oil pump for 30 min. The oil content which CH2Cl2 extracted out in the system was obtained by weighing the flask before and after the rotary evaporation.
This comparative example differs from Performance Example 6 in that Compound BC195 was replaced by Extractant CA12 (commercially available, with an acid content of 98%).

Equilibrium pH: 7.2 and 7.23
SMILES: CCCCCCC(OCC(CC)CCCC)C(=O)O (stereo not shown) [Compound BC195]
